One experiment deals with prostate cancer. Particulars: cited from earlier work.
A further experiment has as its target T1, PSMA (Homo sapiens, UniProt Q04609).
T1 construct: host or cells: LNCaP cells
Briefly: competitive cell binding assay vs 68Ga-labeled PSMA-10 on LNCaP cells. Particulars: LNCaP cells, 0.8 nM 68Ga-PSMA-10 radioligand; read-out: Specific Binding Affinity IC50. The method, then:
(§1) PSMA^+ LNCaP cells (ATCC CRL-1740) were cultured in RPMI medium. Cells were grown at 37° C. in humidified air with 5% C02 and were harvested using trypsin-ethylenediaminetetraacetic acid.
(§2) The competitive cell binding assay and internalization experiments were performed according to Eder M et al. (2012), Bioconjug Chem 23(4):688.
Briefly, the cells (10^5 per well) were incubated with a 0.8 nM solution of ^68Ga-labeled radioligand [Glu-urea-Lys(Ahx)]2-HBED-CC (PSMA-10, precursor ordered from ABX, Radeberg, Germany) in the presence of 12 different concentrations of analyte (0-5000 nM, 100 μL/well). After incubation, the mixture was removed and the wells were washed 3 times with PBS using a multiscreen vacuum manifold (Millipore, Billerica, Mass.). Cell-bound radioactivity was measured using a gamma counter (Packard Cobra II, GMI, Minnesota, USA). The 50% inhibitory concentration (IC50) values were calculated by fitting the data using a nonlinear regression algorithm (GraphPad Software).

The test system of a further experiment is PSMA+ LNCaP cells. Nature of the experiment: cell surface binding and internalization of radiolabeled compounds. It counts as cell-based. The following applies: for Specific Cell Surface Binding / Specific Internalization / Cell Surface binding / Internalization: 68Ga-labeled. The method, then: as §1, §2
For internalization experiments, 10^5 cells per well were seeded in poly-L-lysine coated 24-well cell culture plates 24 h before incubation. After washing, the cells were incubated with 30 nM of the ^68Ga- or ^177Lu-radiolabeled compound for 45 min at 37° C. and at 4° C., respectively. Cellular uptake was terminated by washing 3 times with 1 mL of ice-cold PBS. To remove surface-bound radioactivity, cells were incubated twice with 0.5 mL glycine-HCl in PBS (50 mM, pH=2.8) for 5 min. The cells were washed with 1 mL of ice-cold PBS and lysed using 0.3 N NaOH (0.5 mL). The surface-bound and the internalized fractions were measured in a gamma counter. The cell uptake was calculated as percent of the initially added radioactivity bound to 10^5 cells [% ID/10^5 cells].

Where a SMILES comes first, the peptide text is derived from it. [ ]: non-standard residue; d: D form. The star is where a group is joined. DOTA = O=C(O)CN1CCN(CC(=O)O)CCN(CC(=O)*)CCN(CC(=O)O)CC1; EuK = O=C(O)CC[C@H](NC(=O)N[C@@H](CCCCN*)C(=O)O)C(=O)O; 2Nal = N[C@@H](Cc1ccc2ccccc2c1)C(=O)O; Trx = NC[C@H]1CC[C@H](C(=O)O)CC1

T1 sequence (Q04609 whole entry): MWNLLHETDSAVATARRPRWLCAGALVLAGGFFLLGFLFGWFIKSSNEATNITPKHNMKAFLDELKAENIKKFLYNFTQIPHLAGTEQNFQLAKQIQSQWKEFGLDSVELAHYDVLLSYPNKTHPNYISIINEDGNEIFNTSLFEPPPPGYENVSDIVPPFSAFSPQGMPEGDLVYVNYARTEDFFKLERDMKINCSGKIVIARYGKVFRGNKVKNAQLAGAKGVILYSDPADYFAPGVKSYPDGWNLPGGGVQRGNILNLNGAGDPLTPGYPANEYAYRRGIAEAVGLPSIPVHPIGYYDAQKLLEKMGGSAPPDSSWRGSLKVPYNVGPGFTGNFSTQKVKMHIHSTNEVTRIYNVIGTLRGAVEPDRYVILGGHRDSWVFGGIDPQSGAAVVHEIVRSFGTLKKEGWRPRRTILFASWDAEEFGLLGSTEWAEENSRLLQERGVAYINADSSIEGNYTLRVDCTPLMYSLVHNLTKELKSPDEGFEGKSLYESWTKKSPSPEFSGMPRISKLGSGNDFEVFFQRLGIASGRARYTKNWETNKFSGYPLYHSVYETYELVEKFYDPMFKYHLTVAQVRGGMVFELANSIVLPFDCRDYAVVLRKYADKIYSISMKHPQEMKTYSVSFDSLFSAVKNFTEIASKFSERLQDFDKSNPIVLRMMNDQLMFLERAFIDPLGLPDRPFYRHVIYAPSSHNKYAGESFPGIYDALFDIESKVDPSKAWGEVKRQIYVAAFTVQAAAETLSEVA

With `O=C([O-])CC[C@H](NC(=O)N[C@@H](CCCCNC(=O)[C@H](Cc1ccc2ccccc2c1)NC(=O)C1CCC(CNC(=O)CN2CCN(CC(=O)[O-])CCN(CC(=O)[O-])CCN(CC(=O)[O-])CC2)CC1)C(=O)[O-])C(=O)[O-].[225Ac].[H+].[H+].[H+]` (stereo partly shown) [225Ac-PSMA-617], in the experiment with prostate cancer (both patients), the PSA value result was “fell below the detectability limit”. In addition, the response of patients entry in the experiment on prostate cancer (two patients with extremely advanced and end-stage disease) is “complete remission”.
Consider `O=C(O)CC[C@H](NC(=O)N[C@@H](CCCCNC(=O)[C@H](Cc1ccc2ccccc2c1)NC(=O)[C@H](Cc1c[nH]cn1)NC(=O)[C@H](Cc1c[nH]cn1)NC(=O)[C@H](Cc1c[nH]cn1)NC(=O)[C@H]1CC[C@H](CNC(=O)CN2CCN(CC(=O)O)CCN(CC(=O)O)CCN(CC(=O)O)CC2)CC1)C(=O)O)C(=O)O` [PS10, DOTA-CHx-(H)3-2NaI-PSMA] ({DOTA-Trx}-HHH[2Nal]-EuK), for which the IC50 at PSMA came to 54 ± 20.9 nM. In the experiment on PSMA+ LNCaP cells, the “Specific Cell Surface Binding” value was found to be 0.55 ± 0.08 % ID/10^5 cells and the “Specific Internalization” value is listed as 0.44 ± 0.08 % ID/10^5 cells. In the experiment with PSMA+ LNCaP cells (blocked), the “Cell Surface binding” value worked out at 0.027 ± 0.006 % ID/10^5 cells and the Internalization turned out to be 0.083 ± 0.006 % ID/10^5 cells. In addition, in the experiment on PSMA+ LNCaP cells (not blocked), the “Cell Surface binding” value stood at 0.580 ± 0.046 % ID/10^5 cells and the Internalization came out at 0.523 ± 0.078 % ID/10^5 cells.
Consider `O=C(O)CC[C@H](NC(=O)N[C@@H](CCCCNC(=O)[C@H](Cc1ccc2ccccc2c1)NC(=O)[C@H](Cc1c[nH]cn1)NC(=O)[C@H](CCC(=O)O)NC(=O)[C@H](Cc1c[nH]cn1)NC(=O)[C@H](CCC(=O)O)NC(=O)[C@H](Cc1c[nH]cn1)NC(=O)[C@H](CCC(=O)O)NC(=O)[C@H]1CC[C@H](CNC(=O)CN2CCN(CC(=O)O)CCN(CC(=O)O)CCN(CC(=O)O)CC2)CC1)C(=O)O)C(=O)O` [PS-3, DOTA-Chx-(EH)3-2NaI-PSMA] ({DOTA-Trx}-EHEHEH[2Nal]-EuK), for which, at PSMA, the IC50 is 43.1 ± 9.63 nM. For the same compound, in the experiment with PSMA+ LNCaP cells, the “Specific Cell Surface Binding” value stood at 0.84 ± 0.03 % ID/10^5 cells and the “Specific Internalization” value was determined as 0.24 ± 0.02 % ID/10^5 cells. Moreover, in the experiment on PSMA+ LNCaP cells (blocked), the “Cell Surface binding” value is on record as 0.183 ± 0.025 % ID/10^5 cells and the Internalization is listed as 0.317 ± 0.025 % ID/10^5 cells. Also, in the experiment on PSMA+ LNCaP cells (not blocked), the “Cell Surface binding” value came out at 1.023 ± 0.140 % ID/10^5 cells and the Internalization turned out to be 0.557 ± 0.042 % ID/10^5 cells.
Regarding `O=C(O)CC[C@H](NC(=O)N[C@@H](CCCCNC(=O)[C@H](Cc1c[nH]cn1)NC(=O)[C@H](CCC(=O)O)NC(=O)[C@H](Cc1c[nH]cn1)NC(=O)[C@H](CCC(=O)O)NC(=O)[C@H](Cc1c[nH]cn1)NC(=O)[C@H](CCC(=O)O)NC(=O)[C@H](Cc1ccc2ccccc2c1)NC(=O)[C@H]1CC[C@H](CNC(=O)CN2CCN(CC(=O)O)CCN(CC(=O)O)CCN(CC(=O)O)CC2)CC1)C(=O)O)C(=O)O` [PS-1, DOTA-CHx-2NaI-(EH)3-PSMA] ({DOTA-Trx}-[2Nal]EHEHEH-EuK), the IC50 at PSMA came to 56 ± 7.7 nM. For the same compound, in the experiment with PSMA+ LNCaP cells, the “Specific Cell Surface Binding” value is 1.09 ± 0.17 % ID/10^5 cells and the “Specific Internalization” value turned out to be 0.46 ± 0.11 % ID/10^5 cells. Also, in the experiment with PSMA+ LNCaP cells (blocked), the “Cell Surface binding” value is 0.069 ± 0.013 % ID/10^5 cells and the Internalization is 0.212 ± 0.037 % ID/10^5 cells. In the experiment on PSMA+ LNCaP cells (not blocked), the “Cell Surface binding” value stood at 1.162 ± 0.183 % ID/10^5 cells and the Internalization came to 0.676 ± 0.155 % ID/10^5 cells. Besides, in the experiment with PSMA+ LNCaP cells (177Lu-labeled, LNCaP cells), the “Specific cell surface bound” value was determined as 6.84 ± 0.06 % ID/10^5 cells and the Specific internalized is listed as 4.32 ± 0.03 % ID/10^5 cells.

As usually defined, the IC50 is the concentration that gives 50% inhibition.

Source of the values: US20220118121A1, “PROSTATE SPECIFIC MEMBRANE ANTIGEN (PSMA) LIGANDS WITH IMPROVED TISSUE SPECIFICITY” (Ruprecht-Karls-Universität Heidelberg, priority 2019, published 2022).
